Measurements reported in patent publication US20150297652A1, “COMPOSITIONS AND METHODS FOR THEIR DERMATOLOGICAL USE” (VITA NATURALE, LLC, priority 2012, published 2015).

Columns and labels:
chronic scalp dermatitis = experiment: Topical treatment of chronic scalp dermatitis (Subject 3); assay type: in vivo, human; details: past treatment of the scalp with clobetasol 0.05% solution
Procedure: (§1) A topical composition of the present invention, referred to herein as Composition 1, comprising as active ingredients Albizzia lebbeck (1%), schisandra chinensis (0.1%), and ophiopogon japonicus (2%), as well as petrolatum, water, glycerin, sodium hyaluronate, dimethicone, glyceryl stearate, acrylates, disodium EDTA, capric triglyceride, propanediol, phenoxyethanol, and triethanolamine, was prepared and administered to subjects as follows:
Subject 3 suffered from chronic scalp dermatitis characterized by persistent severe itching and scaling of the scalp. […] Untreated areas were persistently itchy and scaly.

chronic eyelid eczema = experiment: Topical treatment of chronic eyelid eczema (Subject 1); assay type: in vivo, human; details: previously treated with emollients and hydrocortisone
Procedure: as §1, with “follows: Subject 1 suffered from chronic eyelid eczema characterized by persistent severe itching and scaling of the eyelids.” for “follows:”

Row | SMILES | adverse side effects (chronic scalp dermatitis) | improvement with previous treatment (chronic eyelid eczema)
1 | C[C@H]1C[C@H]2[C@@H]3CCC4=CC(=O)C=C[C@]4(C)[C@@]3(F)[C@@H](O)C[C@]2(C)[C@@]1(O)C(=O)CCl [clobetasol] | adverse side effects including acne and skin atrophy | 
2 | C[C@]12CCC(=O)C=C1CC[C@@H]1[C@@H]2[C@@H](O)C[C@@]2(C)[C@H]1CC[C@]2(O)C(=O)CO [hydrocortisone] |  | minimal improvement
